According to patent publication US20220030913A1, “SUPPLEMENT FOR LIVESTOCK” (Hoxie Feedyard, LLC, priority 2020, published 2022):

Tests used:
[1] = 60 Day feeding study, cattle performance; assay type: in vivo, cattle (crossbred steers)
Source text: (§1) Feeding trials were completed with a randomized block design utilizing 4 treatments and 13 replicates per treatment. The first 20 pens (block 1, 5 replicates per treatment group) were placed first, the second 20 pens (block 2, 5 replicates per treatment group) were placed […], and the last 12 pens (block 3, 3 replicates per treatment group) were placed last. All cattle were housed within one area of the feedyard.
(§2) Crossbred steers (n=4,849) with an average weight of 590 kg+/−19.7 kg of various origins from the High Plains and Midwest were selected from within a northwest Kansas commercial feedyard. All cattle underwent the same receiving protocol and were placed in 200 head pens. All cattle were acclimated to feedlot rations and had been on feed a minimum of 60 days prior to trial enrollment. Starting rations during the initial 60 days included 75 mg/head/day tylosin (Tylan, Elanco Animal Health, Greenfield, Ind.) with 15 g/ton monensin (Rumensin, Elanco Animal Health, Greenfield, Ind.).
(§3) At 60 days of feed, 2-200 head pens were systematically allocated to 4 pens of 100 head. Two pens of 200 head were sorted at the chute into 4-100 head pens at time of terminal implant. Each 200 head pen contributed 50 head to each of the 4 pens that would be eventually allocated to treatment. This was accomplished by systematic allocation of 5 head at a time to each of the trial pens. If 200 head counts were not exactly 100 head/pen, the final allocations were that the number of animals per treatment group were similar. Once the 4-100 head pens (1 replicate) were sorted, the pens of cattle were weighed by pen, a 4% pencil shrink was applied, and pens were randomly assigned to 1 of 4 treatments: (1) Positive control (MT) 75 mg/head/day tylosin (Tylan,® Elanco Animal Health, Greenfield, Ind.) and 185 mg/head/day monensin (Rumensin,® Elanco Animal Health, Greenfield, Ind.); (2) Negative control (NO MT) fed without Rumensin® or Tylan®; (3) Decoquinate (DECO) fed 275 to 325 mg/head/day (Deccox,® Zoetis, Parsippany, N.J.); or (4) 3 g/head/day Yucca schidigera (YS) (Micro-Aid,® DPI Global, Porterville, Calif.). All cattle received an identification tag specific to the trial. Caretakers and processing staff were blinded to treatment.
All treatment groups received the same base ration (Table 1) that was balanced to provide 14% crude protein DM, […] NEg (Table 1). Rations were prepared using a stationary batcher box (Feeding Systems, Inc., Columbus, Nebr.) and loaded onto mixer/delivery trucks with box-mounted scale (Rotomix Manufacturing, Dodge City, Kans.). Treatment rations were delivered twice daily (0800 and 1300) on separate trucks to prevent cross contamination of treatment rations.
Data on cattle performance were derived from feedlot closeout reports after all pens of cattle were shipped to an abattoir. Daily dry matter intakes were recorded via bunk management personnel and entered into the computerized bunk management system. The average dry matter intake per pen over the 60-day period was retrieved from closeout data. Final body weight was calculated as (carcass weight/0.64). Average daily gain (ADG) was calculated on a pen basis using the equation ((Final body weight−Initial body weight)/days on feed). Feed conversion was calculated by dividing the […], then carcass adjusted G:F was calculated as the reciprocal of feed conversion.
Continuous variables were analyzed using PROC Glimmix (SAS 9.4, SAS Inst. Inc., Cary, N.C.). Models contained treatment as a fixed effect, block as a random effect, and pen as the experimental unit. Least squares means were compared using the PDIFF function of SAS and the Tukey-Kramer adjustment for multiple comparisons. Statistical significance was determined at P<0.05 with tendencies at 0.06>P<0.10. Liver abscess scores, yield grade, and incidence of Eimeria spss. were converted to pen level frequency percentages prior to analysis. […]

liver abscesses = assay: 60 Day feeding study, liver abscess scores at slaughter; assay type: in vivo, cattle (crossbred steers); details: 60 day study
Source text: as §1, §2, §3
(§4) At 60±4 days of feed, all pens of cattle were shipped to the same abattoir. Hot carcass weight was collected from the plant via scale on carcass rail. Liver abscess scores were assessed by USDA trained professionals and data were collected by third party trained professionals using the liver scoring system previously described by Brown et al. (1975): 0=no abscesses, A−=2-4 abscesses under 1 inch in diameter, A=1-2 abscesses greater than 1 inch in diameter and A+=abscesses greater than 2 inches in diameter, ruptured abscess, or adhesions to body wall. Yield grade and quality grade data were collected from the abattoir by a third party.
(§5) Continuous variables were analyzed using PROC Glimmix (SAS 9.4, SAS Inst. Inc., Cary, N.C.). Models contained treatment as a fixed effect, block as a random effect, and pen as the experimental unit. Least squares means were compared using the PDIFF function of SAS and the Tukey-Kramer adjustment for multiple comparisons. Statistical significance was determined at P<0.05 with tendencies at 0.06>P<0.10. Liver abscess scores, yield grade, and incidence of Eimeria spss. were converted to pen level frequency percentages prior to analysis.

Eimeria spp. = assay: 60 Day feeding study, qualitative fecal flotation for Eimeria; assay type: in vivo; details: fecal samples at 50 d of feed, samples positive for at least 1+ Eimeria
Source text: At 60 days of feed, 2-200 head pens were systematically allocated to 4 pens of 100 head. Two pens of 200 head were sorted at the chute into 4-100 head pens at time of terminal implant. Each 200 head pen contributed 50 head to each of the 4 pens that would be eventually allocated to treatment. This was accomplished by systematic allocation of 5 head at a time to each of the trial pens. If 200 head counts were not exactly 100 head/pen, the final allocations were that the number of animals per treatment group were similar. […]
Freshly voided fecal samples (n=10 per pen) were collected at 50 d of feed for fecal flotation to determine the presence of Eimeria spss. […] Qualitative fecal flotation measurements were measured on a scale of 1+ to 5+ with 1+ having <10 oocysts per slide, 3+ samples having 50-100 oocysts per slide, and 5+ having >500 oocysts/slide. This technique is considered semi-quantitative, with 3+ samples equivalent to approximately 50 oocysts/gram. […]
Continuous variables were analyzed using PROC Glimmix (SAS 9.4, SAS Inst. Inc., Cary, N.C.). […] Statistical significance was determined at P<0.05 with tendencies at 0.06>P<0.10. […]

[2] = 60 Day feeding study, carcass characteristics; assay type: in vivo, cattle (crossbred steers); details: 60 day study
Source text: as §1, §2, §3, §4, §5

CCCCCCCCCCOc1cc2c(O)c(C(=O)OCC)cnc2cc1OCC [DECO, decoquinate]
final body weight, rank among treatment groups ([1]; 60 day study): intermediate
growth performance compared with MT group ([1]; 60 day study): more similar to cattle in the MT group
DMI ([1]; steers, average daily dry matter intake over 60-day period): 12.1^a, b kg
Carcass adjusted G:F ([1]; steers, last 60 days on feed): 0.120 kg/kg
Carcass adjusted ADG ([1]; steers, last 60 days on feed, pen basis): 1.47^a, b kg
Carcass adjusted final BW ([1]; steers, treatment in ration for last 60 days, final BW = carcass weight/0.64): 681.0^a, b kg
Total liver abscess (liver abscesses): 31.4^a, b %
incidence of liver abscesses compared with other groups (liver abscesses; pairwise comparisons of least squares means): higher than cattle in the MT group, but lower than cattle in the NO MT group
A liver abscesses (liver abscesses; A = 1-2 abscesses greater than 1 inch): 4.1%
A+ liver abscesses (liver abscesses; A+ = abscesses greater than 2 inches, ruptured abscess or adhesions): 19.68^a, b %
A− liver abscesses (liver abscesses; A− = 2-4 abscesses under 1 inch): 7.6%
Eimeria spp. incidence (Eimeria spp.): 5.0%
Dressing yield [2]: 63.9^a, b %
HCW, rank among treatment groups [2]: intermediate
HCW ([2]; hot carcass weight): 435.8^a, b kg
Choice ([2]; quality grade): 83.5%
Prime ([2]; quality grade): 2.4%
Select ([2]; quality grade): 11.9%
Standard ([2]; quality grade): 2.1%
YG1 ([2]; yield grade 1, pen level frequency): 7.0^a, c %
YG2 ([2]; yield grade 2): 33.8%
YG3 ([2]; yield grade 3): 40.8%
YG4 ([2]; yield grade 4): 17.1%
YG5 ([2]; yield grade 5): 1.3%
